Consider 1 compound from patent publication US20160361311A1, “LIGANDS THAT TARGET HEPATITIS C VIRUS E2 PROTEIN” (AMERICAN UNIVERSITY OF CAIRO, priority 2014, published 2016).

SMILES strings stand for the structures.

The subject of data set [1] is HCVpp 2a. The data set can be described thus: HCVpp 2a infection of Huh-7 cells, 96-well (luciferase). Type of data set: cell-based, HCV. As to conditions: Hepatitis C virus, Huh-7, 30 h, read-out: IC50 HCVpp. On the procedure:
(§1) Pseudotyped retroviral particles harboring HCV envelope proteins (HCVpp) from different genotypes were produced as described previously. A plasmid encoding the feline endogenous virus RD114 glycoprotein [35] was used for the production of RD114pp. Both HCVpp and RD114pp expressed Firefly luciferase.
(§2) To identify ligands that inhibit HCV infection, Huh-7 cells were seeded in 96-well plates and treated the day after with six different concentrations of each ligand diluted in DMSO in duplicate using a Zephyr automated liquid handling workstation (Caliper BioSciences, Hopkinton, Mass.). The final concentration of DMSO (1%) was adjusted to be the same for all ligand concentrations. Cells treated with DMSO were used as negative controls. Cells treated with different concentrations of anti-CD81 (JS-81 from BD Pharmingen, San Jose, Calif.) 1 hour before infection, were also used as positive controls. The third day, RD114pp, HCVpp or HCVcc were inoculated and incubated for 30 hours at 37° C. Firefly and Gaussia luciferase assays were performed as indicated by the manufacturer (Promega, San Luis Obispo, Calif.).
(§3) The remaining ligands were next tested against pseudotyped retroviral particles harboring genotype-2a HCV envelope proteins (HCVpp 2a), cell culture produced HCV particles (HCVcc) or RD114pp. As a positive control, an anti-CD81 antibody was used in parallel.

Data set [2] deals with T1, HCV E2 protein binding to native CD81 on Raji cells (Hepatitis C virus genotype 1b, UniProt Q9WMX2).
T1 construct: encoding amino acids 384-656 of the Con1 envelope protein 2 ectodomain (eE2); Protein A (C); made in house; host or cells: E2: HEK293T cells (inferred); CD81: endogenous on Raji cells
The data set can be described thus: Flow cytometry: recombinant HCV E2 binding to native CD81 on Raji cells. As to conditions: E2 pre-incubated with 1-400 μM ligand; flow cytometry MFI. It counts as cell-based, human. On the procedure:
The human B cell line, Raji, which expresses high levels of CD81 on its surface was used to determine if ligands could inhibit the binding of HCV-E2 protein to native CD81. Cells were grown in RPMI medium (10% fetal calf serum, 1% penicillin/streptomycin, 1% L-glutamine, 1% non-essential amino acids, 1% sodium pyruvate, pH 7.4) at 37° C. in an atmosphere of 5% CO2. Purified HCV-E2 protein (4 μg) was pre-incubated with 1,5,15, 50, 100 or 400 μM of the ligand 281816 for 25 min RT. After pre-incubation the E2-ligand complex was added to the cells and incubated for 25 min. The complexes were washed from the cells and 0.5 μg of anti E2 antibody (clone H53) was added followed by secondary anti mouse-FITC (Southern Biotechnology). The cells were washed, fixed with 3% paraformaldehyde, and analyzed by flow cytometry (BD FACSCalibur, software: Cell Quest Pro) analysis. The mean fluorescence intensity (MFI) was calculated using Flowjo software (TreesStar, www.flowjo.com).
Ligand 281816 was selected based on the prediction by docking that it would bind to a site on the HCV E2 protein where CD81 binds. To confirm that the binding of 281816 to E2 inhibits the HCV E2-CD81 interaction, flow cytometry was used to monitor the binding of a recombinant form of the E2 protein to native CD81 overexpressed on Raji cells as a function of 281816 concentration.
For orientation: A flow cytometer gives signals particle by particle.

For a further data set, the system named is HCVcc. Nature of the data set: HCVcc infection of Huh-7 cells (Gaussia luciferase). As to conditions: Hepatitis C virus, Huh-7, 30 h, read-out: IC50 HCVcc. It counts as cell-based, HCV. On the procedure: The cell culture-produced HCV particles (HCVcc) used in this study were based on the JFH1 strain [36] and were prepared as described previously. They were engineered to express the A4 epitope, titer-enhancing mutations and Gaussia luciferase.
as §2, §3

Data set [3] has as its system HCV genotypes 1a, 1b, 2a, 2b, 4a and 6a. The data set can be described thus: HCVpp infection assays over all genotypes tested (summary statements). Type of data set: cell-based. On the procedure:
as §1, §2
The analysis of the effect of 281816 ligand on Huh-7 infection by HCVpp bearing envelope proteins from different genotypes was performed in 24-well plates using the method described above. […]

The test system of another data set is HCVpp 2b. The data set can be described thus: HCVpp genotype infection of Huh-7 cells, 24-well. Type of data set: cell-based, HCV. The conditions noted are these: Hepatitis C virus. On the procedure:
as §1, §2
(§4) The analysis of the effect of 281816 ligand on Huh-7 infection by HCVpp bearing envelope proteins from different genotypes was performed in 24-well plates using the method described above. This ligand was also screened for toxicity to the hepatocytes using the MTS (3-(4,5-dimethylthiazol-2-yl)-5-(3-carboxymethoxyphenyl)-2-(4-sulfophenyl)-2Htetrazolium) assay.
(§5) To determine if 281816 would inhibit HCV genotypes other than 2a, a series of infection assays were performed with HCVpp bearing envelope proteins from a number of different HCV genotypes.

Data set [4] relates to HCVpp 2a. Nature of the data set: HCVpp genotype infection of Huh-7 cells, 24-well. It counts as cell-based, HCV. As to conditions: Hepatitis C virus. On the procedure: as §1, §2, §4, §5
The next data set has as its system HCVpp 1b. Nature of the data set: HCVpp genotype infection of Huh-7 cells, 24-well. Type of data set: cell-based, HCV. As to conditions: Hepatitis C virus. On the procedure: as §1, §2, §4, §5
A further data set concerns HCVpp 1a. The data set can be described thus: HCVpp genotype infection of Huh-7 cells, 24-well. Type of data set: cell-based, HCV. The conditions noted are these: Hepatitis C virus. On the procedure: as §1, §2, §4, §5
The next data set relates to HCVpp 4a. The data set can be described thus: HCVpp genotype infection of Huh-7 cells, 24-well. It counts as cell-based, HCV. The conditions noted are these: Hepatitis C virus. On the procedure: as §1, §2, §4, §5
The next data set relates to HCVpp 6a. Nature of the data set: HCVpp genotype infection of Huh-7 cells, 24-well. Type of data set: cell-based, HCV. The conditions noted are these: Hepatitis C virus. On the procedure:
as §1, §2, §4, §5

T1 sequence (Q9WMX2 384-656): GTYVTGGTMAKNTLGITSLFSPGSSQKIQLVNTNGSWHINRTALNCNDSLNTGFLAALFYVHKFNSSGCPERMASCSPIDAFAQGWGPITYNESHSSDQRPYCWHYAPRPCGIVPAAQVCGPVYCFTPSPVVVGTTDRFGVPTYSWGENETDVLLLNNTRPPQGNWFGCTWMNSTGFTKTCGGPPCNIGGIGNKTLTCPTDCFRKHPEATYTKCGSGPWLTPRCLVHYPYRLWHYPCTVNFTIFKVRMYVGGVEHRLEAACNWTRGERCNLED

For orientation: IC50 means the concentration that inhibits the measured activity by half. As to `CSc1ccc2c(c1)C(N1CCN(C)CC1)Cc1ccccc1S2` (centres unmarked) [Ligand 281816], the concentration for half-maximal inhibition (IC50) with HCVpp 2a [1] is 1.02 µM; with HCVcc, 3.95 µM; in data set [3] (Hepatitis C virus, read-out: IC50 range over HCV genotypes) it was 2.2 to 4.6 µM; in the data set with HCVpp 2b, 2.93 µM; in the data set on HCVpp 2a [4], 2.22 µM; in the data set on HCVpp 1b, 4.66 µM. The IC50 turned out to be 2.95 µM in the data set with HCVpp 1a, 3.44 µM in the data set on HCVpp 4a and 3.3 µM with HCVpp 6a. In addition, the “inhibition of E2 protein binding to CD81 on Raji cells” value in data set [2] is “inhibited by 281816 in a dose-dependent manner up to 100 μM”. Moreover, the “block of hepatocyte infection (in words)” value in [3] (genotypes 1a, 1b, 2a, 2b, 4a and 6a) was “block infection of hepatocytes by each of the HCV genotypes and subtypes tested”.
